From ChEMBL document CHEMBL4325853, “Design, synthesis and antibacterial evaluation of 2,4-disubstituted-6-thiophenyl-pyrimidines” (Eur J Med Chem, 2019)
Converted amounts (≈) assume the structure as drawn. The source made the active and inactive calls. The rule behind the calls is not given here.

How the values were obtained:
Bacillus subtilis = experiment: Antibacterial activity against Bacillus subtilis 168 after 18 hrs by broth microdilution method; type: functional; settings: subsp. subtilis str. 168, 18 h
Enterococcus faecalis [1] = experiment: Antibacterial activity against Enterococcus faecalis ATCC 29212 after 18 hrs by broth microdilution method; type: functional; settings: ATCC 29212, 18 h
Escherichia coli = experiment: Antibacterial activity against Escherichia coli ATCC 25922 after 18 hrs by broth microdilution method; type: functional; settings: ATCC 25922, 18 h
Enterococcus faecium = experiment: Potency index, ratio of berberine MIC to test compound MIC for Enterococcus faecium ATCC 49624; type: functional
Staphylococcus aureus [2] = experiment: Antibacterial activity against methicillin-resistant Staphylococcus aureus ATCC BAA41 after 18 hrs by broth microdilution method; type: functional; settings: ATCC BAA41, 18 h
Staphylococcus aureus [3] = experiment: Antibacterial activity against methicillin-resistant Staphylococcus aureus ATCC 33591 after 18 hrs by broth microdilution method; type: functional; settings: ATCC 33591, 18 h
Enterococcus faecalis [4] = experiment: Antibacterial activity against vancomycin-resistant Enterococcus faecalis ATCC 700221 after 18 hrs by broth microdilution method; type: functional; settings: ATCC 700221, 18 h
Staphylococcus aureus [5] = experiment: Potency index, ratio of methicillin MIC to test compound MIC for methicillin-resistant Staphylococcus aureus ATCC BAA41; type: functional
Staphylococcus aureus [6] = experiment: Potency index, ratio of methicillin MIC to test compound MIC for methicillin-resistant Staphylococcus aureus ATCC BAA1720; type: functional
Staphylococcus aureus [7] = experiment: Antibacterial activity against methicillin-resistant Staphylococcus aureus isolate 7971 after 18 hrs by broth microdilution method; type: functional; settings: isolate 7971, 18 h
Staphylococcus aureus [8] = experiment: Antibacterial activity against methicillin-resistant Staphylococcus aureus isolate 7807 after 18 hrs by broth microdilution method; type: functional; settings: isolate 7807, 18 h
Staphylococcus aureus [9] = experiment: Antibacterial activity against methicillin-resistant Staphylococcus aureus isolate 2491 after 18 hrs by broth microdilution method; type: functional; settings: isolate 2491, 18 h
Staphylococcus aureus [10] = experiment: Antibacterial activity against methicillin-resistant Staphylococcus aureus isolate 2931 after 18 hrs by broth microdilution method; type: functional; settings: isolate 2931, 18 h
Staphylococcus aureus [11] = experiment: Antibacterial activity against methicillin-resistant Staphylococcus aureus isolate 1610 after 18 hrs by broth microdilution method; type: functional; settings: isolate 1610, 18 h
Staphylococcus aureus [12] = experiment: Antibacterial activity against methicillin-resistant Staphylococcus aureus isolate 7813 after 18 hrs by broth microdilution method; type: functional; settings: isolate 7813, 18 h
Staphylococcus aureus [13] = experiment: Antibacterial activity against methicillin-resistant Staphylococcus aureus isolate 7972 after 18 hrs by broth microdilution method; type: functional; settings: isolate 7972, 18 h
Staphylococcus aureus [14] = experiment: Antibacterial activity against methicillin-resistant Staphylococcus aureus isolate 1220 after 18 hrs by broth microdilution method; type: functional; settings: isolate 1220, 18 h
Staphylococcus aureus [15] = experiment: Antibacterial activity against methicillin-resistant Staphylococcus aureus isolate 6515 after 18 hrs by broth microdilution method; type: functional; settings: isolate 6515, 18 h
Staphylococcus aureus [16] = experiment: Antibacterial activity against methicillin-resistant Staphylococcus aureus isolate 8071 after 18 hrs by broth microdilution method; type: functional; settings: isolate 8071, 18 h
Staphylococcus aureus [17] = experiment: Antibacterial activity against methicillin-resistant Staphylococcus aureus isolate 4955 after 18 hrs by broth microdilution method; type: functional; settings: isolate 4955, 18 h
Staphylococcus aureus [18] = experiment: Antibacterial activity against methicillin-resistant Staphylococcus aureus isolate 2158 after 18 hrs by broth microdilution method; type: functional; settings: isolate 2158, 18 h
Staphylococcus aureus [19] = experiment: Antibacterial activity against methicillin-resistant Staphylococcus aureus isolate 7682 after 18 hrs by broth microdilution method; type: functional; settings: isolate 7682, 18 h
Staphylococcus aureus [20] = experiment: Antibacterial activity against methicillin-resistant Staphylococcus aureus isolate 5239 after 18 hrs by broth microdilution method; type: functional; settings: isolate 5239, 18 h
Staphylococcus aureus [21] = experiment: Antibacterial activity against methicillin-resistant Staphylococcus aureus isolate 2350 after 18 hrs by broth microdilution method; type: functional; settings: isolate 2350, 18 h
Staphylococcus aureus [22] = experiment: Antibacterial activity against methicillin-resistant Staphylococcus aureus isolate 7536 after 18 hrs by broth microdilution method; type: functional; settings: isolate 7536, 18 h
Staphylococcus aureus [23] = experiment: Antibacterial activity against methicillin-resistant Staphylococcus aureus isolate 7434 after 18 hrs by broth microdilution method; type: functional; settings: isolate 7434, 18 h
Staphylococcus aureus [24] = experiment: Antibacterial activity against methicillin-resistant Staphylococcus aureus isolate 7449 after 18 hrs by broth microdilution method; type: functional; settings: isolate 7449, 18 h
Staphylococcus aureus [25] = experiment: Bactericidal activity against methicillin-resistant Staphylococcus aureus ATCC 43300 after 18 hrs by broth microdilution method; type: functional; settings: ATCC 43300, 18 h
Enterococcus faecalis [26] = experiment: Bactericidal activity against vancomycin-resistant Enterococcus faecalis ATCC 700221 after 18 hrs by broth microdilution method; type: functional; settings: ATCC 700221, 18 h
Staphylococcus aureus [27] = experiment: Ratio of MBC to MIC for methicillin-resistant Staphylococcus aureus ATCC BAA41; type: functional
Staphylococcus aureus [28] = experiment: Ratio of MBC to MIC for methicillin-resistant Staphylococcus aureus ATCC 43300; type: functional
[29] = biological target: T1, Cell division protein FtsZ (Staphylococcus aureus) (UniProt P0A031); experiment: Inhibition of recombinant Staphylococcus aureus FtsZ polymerization at 8 ug/ml by 90 degree light scattering-based fluorescence spectrometric analysis
T1 sequence (whole entry): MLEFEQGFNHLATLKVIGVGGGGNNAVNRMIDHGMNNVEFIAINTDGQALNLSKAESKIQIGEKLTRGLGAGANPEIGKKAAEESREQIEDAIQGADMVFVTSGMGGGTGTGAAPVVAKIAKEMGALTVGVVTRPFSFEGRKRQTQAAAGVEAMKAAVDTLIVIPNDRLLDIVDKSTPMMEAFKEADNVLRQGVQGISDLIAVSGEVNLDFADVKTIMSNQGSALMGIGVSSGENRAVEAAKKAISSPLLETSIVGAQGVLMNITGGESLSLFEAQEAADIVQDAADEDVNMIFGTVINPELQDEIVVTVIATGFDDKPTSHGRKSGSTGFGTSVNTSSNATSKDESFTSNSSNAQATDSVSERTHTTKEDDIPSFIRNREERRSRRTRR

[30] = biological target: T1, Cell division protein FtsZ (Staphylococcus aureus); experiment: Inhibition of recombinant Staphylococcus aureus FtsZ GTPase activity assessed as reduction in inorganic phosphate formation after 30 mins by colorimetric method
Staphylococcus aureus [31] = experiment: Antibacterial activity against Staphylococcus aureus ATCC 29213 after 10 passages by broth microdilution method; type: functional, organism-based
Staphylococcus aureus [32] = experiment: Ratio of MIC for Staphylococcus aureus ATCC 29213 after and before 11 to 21 serial passages; type: functional
[33] = Hemolytic activity against human erythrocytes measured after 1 hr; type: ADME, cell-based, Erythrocyte
[34] = Selectivity index, ratio of HC50 for human erythrocytes to MIC for methicillin-resistant Staphylococcus aureus ATCC BAA41; type: toxicity; settings: read-out: Selectivity Index
[35] = Selectivity index, ratio of HC50 for human erythrocytes to MIC for methicillin-resistant Staphylococcus aureus ATCC BAA1720; type: toxicity; settings: read-out: Selectivity Index
[36] = Selectivity index, ratio of HC50 for human erythrocytes to MIC for methicillin-resistant Staphylococcus aureus ATCC 33591; type: toxicity; settings: read-out: Selectivity Index
[37] = Selectivity index, ratio of HC50 for human erythrocytes to MIC for methicillin-resistant Staphylococcus aureus ATCC 33592; type: toxicity; settings: read-out: Selectivity Index
[38] = Selectivity index, ratio of HC50 for human erythrocytes to MIC for methicillin-resistant Staphylococcus aureus ATCC 43300; type: toxicity; settings: read-out: Selectivity Index

SMILES: CC(C)(C)c1ccc(CN2CCCN(CCc3cc(-c4cccs4)nc(-c4ccncc4)n3)CC2)cc1
- MIC90 (Bacillus subtilis): 2 µg/mL (≈ 3.91 µM)
- MIC90 (Enterococcus faecalis [1]): 2 µg/mL (≈ 3.91 µM)
- MIC90 (Escherichia coli): 128 µg/mL (≈ 250 µM)
- Ratio (Enterococcus faecium): 50 - 100
- MIC90 (Staphylococcus aureus [2]): 2 µg/mL (≈ 3.91 µM)
- MIC90 (Staphylococcus aureus [3]): 2 µg/mL (≈ 3.91 µM)
- MIC90 (Enterococcus faecalis [4]): 4 µg/mL (≈ 7.82 µM)
- Ratio (Staphylococcus aureus [5]): >100
- Ratio (Staphylococcus aureus [6]): >100
- MIC90 (Staphylococcus aureus [7]): 2 µg/mL (≈ 3.91 µM)
- MIC90 (Staphylococcus aureus [8]): 2 µg/mL (≈ 3.91 µM)
- MIC90 (Staphylococcus aureus [9]): 4 µg/mL (≈ 7.82 µM)
- MIC90 (Staphylococcus aureus [10]): 2 µg/mL (≈ 3.91 µM)
- MIC90 (Staphylococcus aureus [11]): 4 µg/mL (≈ 7.82 µM)
- MIC90 (Staphylococcus aureus [12]): 2 µg/mL (≈ 3.91 µM)
- MIC90 (Staphylococcus aureus [13]): 2 µg/mL (≈ 3.91 µM)
- MIC90 (Staphylococcus aureus [14]): 2 µg/mL (≈ 3.91 µM)
- MIC90 (Staphylococcus aureus [15]): 4 µg/mL (≈ 7.82 µM)
- MIC90 (Staphylococcus aureus [16]): 2 µg/mL (≈ 3.91 µM)
- MIC90 (Staphylococcus aureus [17]): 2 µg/mL (≈ 3.91 µM)
- MIC90 (Staphylococcus aureus [18]): 2 µg/mL (≈ 3.91 µM)
- MIC90 (Staphylococcus aureus [19]): 4 µg/mL (≈ 7.82 µM)
- MIC90 (Staphylococcus aureus [20]): 2 µg/mL (≈ 3.91 µM)
- MIC90 (Staphylococcus aureus [21]): 2 µg/mL (≈ 3.91 µM)
- MIC90 (Staphylococcus aureus [22]): 2 µg/mL (≈ 3.91 µM)
- MIC90 (Staphylococcus aureus [23]): 2 µg/mL (≈ 3.91 µM)
- MIC90 (Staphylococcus aureus [24]): 2 µg/mL (≈ 3.91 µM)
- MBC (Staphylococcus aureus [25]): 4 µg/mL (≈ 7.82 µM)
- MBC (Enterococcus faecalis [26]): 4 µg/mL (≈ 7.82 µM)
- Ratio (Staphylococcus aureus [27]): 1
- Ratio (Staphylococcus aureus [28]): 2
- inhibition [29]: Active
- inhibition [30]: Dose-dependent effect
- Activity (Staphylococcus aureus [31]): Active
- Activity (Staphylococcus aureus [32]): Active
- HC50 at 1 h [33]: > 64 µg/mL
- selectivity ratio [34]: > 32
- selectivity ratio [35]: > 32
- selectivity ratio [36]: > 32
- selectivity ratio [37]: > 32
- selectivity ratio [38]: > 32

SMILES: CC(C)c1ccc(CN2CCCN(CCc3cc(-c4cccs4)nc(-c4ccncc4)n3)CC2)cc1
- MIC90 (Bacillus subtilis): 2 µg/mL (≈ 4.02 µM)
- MIC90 (Enterococcus faecalis [1]): 2 µg/mL (≈ 4.02 µM)
- MIC90 (Escherichia coli): 128 µg/mL (≈ 257 µM)
- Ratio (Enterococcus faecium): 50 - 100
- MIC90 (Staphylococcus aureus [2]): 2 µg/mL (≈ 4.02 µM)
- MIC90 (Staphylococcus aureus [3]): 2 µg/mL (≈ 4.02 µM)
- MIC90 (Enterococcus faecalis [4]): 2 µg/mL (≈ 4.02 µM)
- Ratio (Staphylococcus aureus [5]): >100
- Ratio (Staphylococcus aureus [6]): >100
- MIC90 (Staphylococcus aureus [7]): 2 µg/mL (≈ 4.02 µM)
- MIC90 (Staphylococcus aureus [8]): 2 µg/mL (≈ 4.02 µM)
- MIC90 (Staphylococcus aureus [9]): 4 µg/mL (≈ 8.04 µM)
- MIC90 (Staphylococcus aureus [10]): 2 µg/mL (≈ 4.02 µM)
- MIC90 (Staphylococcus aureus [11]): 4 µg/mL (≈ 8.04 µM)
- MIC90 (Staphylococcus aureus [12]): 2 µg/mL (≈ 4.02 µM)
- MIC90 (Staphylococcus aureus [13]): 2 µg/mL (≈ 4.02 µM)
- MIC90 (Staphylococcus aureus [14]): 2 µg/mL (≈ 4.02 µM)
- MIC90 (Staphylococcus aureus [15]): 2 µg/mL (≈ 4.02 µM)
- MIC90 (Staphylococcus aureus [16]): 2 µg/mL (≈ 4.02 µM)
- MIC90 (Staphylococcus aureus [17]): 2 µg/mL (≈ 4.02 µM)
- MIC90 (Staphylococcus aureus [18]): 2 µg/mL (≈ 4.02 µM)
- MIC90 (Staphylococcus aureus [19]): 4 µg/mL (≈ 8.04 µM)
- MIC90 (Staphylococcus aureus [20]): 2 µg/mL (≈ 4.02 µM)
- MIC90 (Staphylococcus aureus [21]): 2 µg/mL (≈ 4.02 µM)
- MIC90 (Staphylococcus aureus [22]): 2 µg/mL (≈ 4.02 µM)
- MIC90 (Staphylococcus aureus [23]): 2 µg/mL (≈ 4.02 µM)
- MIC90 (Staphylococcus aureus [24]): 2 µg/mL (≈ 4.02 µM)
- MBC (Staphylococcus aureus [25]): 4 µg/mL (≈ 8.04 µM)
- MBC (Enterococcus faecalis [26]): 4 µg/mL (≈ 8.04 µM)
- Ratio (Staphylococcus aureus [27]): 1
- Ratio (Staphylococcus aureus [28]): 2
- inhibition [29]: Active
- inhibition [30]: Dose-dependent effect
- Activity (Staphylococcus aureus [31]): Active
- Ratio (Staphylococcus aureus [32]): 1
- HC50 at 1 h [33]: > 64 µg/mL
- selectivity ratio [34]: > 32
- selectivity ratio [35]: > 32
- selectivity ratio [36]: > 32
- selectivity ratio [37]: > 32
- selectivity ratio [38]: > 32
